# Results published in US6358885B1, “Substituted phenylheterocyclic herbicides” (Mississippi State University, priority 1992, dated 2002).
# How the values were obtained:
# [1] = system: cotton; experiment: Test C preemergence/postemergence greenhouse plant response rating 0 to 100; format: in vivo, Gossypium hirsutum; details: POSTEMERGENCE; for Plant response rating, Cotton: 0 to 100 scale
# Method in brief: (§1)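 Compounds in non-phytotoxic solvent applied preemergence to sandy loam one day after planting, postemergence at the 1–4 leaf stage, or to ~2.5 cm floodwater over silt loam.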
# [2] = system: giant foxtail; experiment: as above; format: in vivo, Setaria faberii; details: POSTEMERGENCE; for Plant response rating, Giant foxtail: 0 to 100 scale
# Method in brief: as §1
# [3] = system: pigweed; experiment: as above; format: in vivo, Amaranthusretroflexus; details: POSTEMERGENCE; for Plant response rating Pigweed: 0 to 100 scale
# Method in brief: as §1
# [4] = system: lambsquarters; experiment: as above; format: in vivo, Chenopodium album; details: POSTEMERGENCE; for Plant response rating Lambsquarters: 0 to 100 scale
# Method in brief: as §1
# [5] = system: chickweed; experiment: as above; format: in vivo, Stellaria media; details: POSTEMERGENCE; for Plant response rating, Chickweed: 0 to 100 scale
# Method in brief: as §1
# [6] = system: giant foxtail; experiment: Test B preemergence/postemergence greenhouse plant response rating 0 to 10; format: in vivo, Setaria faberii; details: 0 to 10 scale
# Method in brief: (§2)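 Test chemicals, dissolved in a non-phytotoxic solvent, were applied to soil at planting and, at the same time, over foliage of seedlings at the one to four leaf stage.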
# [7] = system: crabgrass; experiment: as above; format: in vivo, Digitaria spp.; details: 0 to 10 scale
# Method in brief: as §2
# [8] = system: cotton; experiment: as above; format: in vivo, Gossypium hirsutum; details: 0 to 10 scale
# Method in brief: as §2
# [9] = system: cocklebur; experiment: as above; format: in vivo, Xanthium pensylvanicum; details: 0 to 10 scale
# Method in brief: as §2
# [10] = system: barley; experiment: Test C preemergence/postemergence greenhouse plant response rating 0 to 100; format: in vivo, Hordeum vulgare; details: POSTEMERGENCE; for Plant response rating Barley Igri: 0 to 100 scale
# Method in brief: as §1
# [11] = system: rape; experiment: Test B preemergence/postemergence greenhouse plant response rating 0 to 10; format: in vivo, Brassica napus; details: 0 to 10 scale
# Method in brief: as §2
# [12] = system: duck salad; experiment: Test C flood test plant response rating 0 to 100; format: in vivo, Heteranthera limosa; details: for Plant response rating (0 to 100), Duck salad: under POSTEMERGENCE head (flood test species); for Plant response rating Duck salad: flood test species listed under POSTEMERGENCE, 0 to 100 scale
# Method in brief: as §1
# [13] = system: velvetleaf; experiment: Test C preemergence/postemergence greenhouse plant response rating 0 to 100; format: in vivo, Abutilon theophrasti; details: POSTEMERGENCE; for Plant response rating, Velvetleaf: 0 to 100 scale
# Method in brief: as §1
# [14] = system: cheatgrass; experiment: Test B preemergence/postemergence greenhouse plant response rating 0 to 10; format: in vivo, Bromus secalinus; details: 0 to 10 scale
# Method in brief: as §2
# [15] = system: morningglory; experiment: as above; format: in vivo, Ipomoea hederacea; details: 0 to 10 scale
# Method in brief: as §2
# [16] = system: soybean; experiment: Test C preemergence/postemergence greenhouse plant response rating 0 to 100; format: in vivo, Glycine max; details: POSTEMERGENCE; for Plant response rating, Soybean: 0 to 100 scale
# Method in brief: as §1
# [17] = system: bedstraw; experiment: Test B preemergence/postemergence greenhouse plant response rating 0 to 10; format: in vivo, Galium aparine; details: 0 to 10 scale
# Method in brief: as §2
# [18] = system: umbrella sedge; experiment: Test C flood test plant response rating 0 to 100; format: in vivo, Cyperus difformis; details: for Plant response rating (0 to 100), Umbrella sedge: under POSTEMERGENCE head (flood test species); for Plant response rating Umbrella sedge: flood test species listed under POSTEMERGENCE, 0 to 100 scale
# Method in brief: as §1
smiles,measurement,setting,value
C#CC(C)Oc1cc(-c2nn3c(c2Cl)CCCC3)c(F)cc1Cl (centres unmarked) [Compound 36],"Plant response rating, Cotton",[1]; 62 g/ha,100
same,"Plant response rating, Cotton",[1]; 125 g/ha,100
same,"Plant response rating (0 to 100), Cotton",[1]; Rate 16 g/ha,100
same,"Plant response rating (0 to 100), Cotton",[1]; Rate 31 g/ha,100
same,"Plant response rating, Giant foxtail",[2]; 62 g/ha,75
same,"Plant response rating, Giant foxtail",[2]; 125 g/ha,85
same,"Plant response rating (0 to 100), Giant foxtail",[2]; Rate 16 g/ha,50
same,"Plant response rating (0 to 100), Giant foxtail",[2]; Rate 31 g/ha,60
same,Plant response rating Pigweed,[3]; 62 g/ha,100
same,Plant response rating Pigweed,[3]; 125 g/ha,100
same,"Plant response rating (0 to 100), Pigweed",[3]; Rate 16 g/ha,100
same,"Plant response rating (0 to 100), Pigweed",[3]; Rate 31 g/ha,100
same,Plant response rating Lambsquarters,[4]; 62 g/ha,100
same,Plant response rating Lambsquarters,[4]; 125 g/ha,100
same,"Plant response rating (0 to 100), Lambsquarters",[4]; Rate 16 g/ha,90
same,"Plant response rating (0 to 100), Lambsquarters",[4]; Rate 31 g/ha,95
same,"Plant response rating, Chickweed",[5]; 62 g/ha,80
same,"Plant response rating, Chickweed",[5]; 125 g/ha,100
same,"Plant response rating (0 to 100), Chickweed",[5]; Rate 16 g/ha,70
same,"Plant response rating (0 to 100), Chickweed",[5]; Rate 31 g/ha,80
same,"Plant response rating, Giant foxtail","[6]; POSTEMERGENCE, Rate 50 g/ha",6
same,"Plant response rating, Giant foxtail","[6]; PREEMERGENCE, Rate 50 g/ha",5
same,"Plant response rating, Giant foxtail","[6]; Rate 200 g/ha, POSTEMERGENCE",7
same,"Plant response rating, Giant foxtail","[6]; Rate 200 g/ha, PREEMERGENCE",9
same,"Plant response rating, Crabgrass","[7]; POSTEMERGENCE, Rate 50 g/ha",5
same,"Plant response rating, Crabgrass","[7]; POSTEMERGENCE, Rate 200 g/ha",7
same,"Plant response rating, Crabgrass","[7]; PREEMERGENCE, Rate 50 g/ha",5
same,"Plant response rating, Crabgrass","[7]; Rate 200 g/ha, PREEMERGENCE",9
same,"Plant response rating, Cotton","[8]; POSTEMERGENCE, Rate 50 g/ha",9
same,"Plant response rating, Cotton","[8]; POSTEMERGENCE, Rate 200 g/ha",10
same,"Plant response rating, Cotton","[8]; PREEMERGENCE, Rate 50 g/ha",4
same,"Plant response rating, Cotton","[8]; Rate 200 g/ha, PREEMERGENCE",6
same,"Plant response rating, Cocklebur","[9]; POSTEMERGENCE, Rate 50 g/ha",9
same,"Plant response rating, Cocklebur","[9]; POSTEMERGENCE, Rate 200 g/ha",10
same,"Plant response rating, Cocklebur","[9]; PREEMERGENCE, Rate 50 g/ha",0
same,"Plant response rating, Cocklebur","[9]; Rate 200 g/ha, PREEMERGENCE",2
same,Plant response rating Barley Igri,[10]; 62 g/ha,30
same,Plant response rating Barley Igri,[10]; 125 g/ha,50
same,"Plant response rating (0 to 100), Barley Igri",[10]; Rate 16 g/ha,20
same,"Plant response rating (0 to 100), Barley Igri",[10]; Rate 31 g/ha,30
same,"Plant response rating, Rape","[11]; POSTEMERGENCE, Rate 50 g/ha",10
same,"Plant response rating, Rape","[11]; PREEMERGENCE, Rate 50 g/ha",5
same,"Plant response rating, Rape","[11]; Rate 200 g/ha, POSTEMERGENCE",10
same,"Plant response rating, Rape","[11]; Rate 200 g/ha, PREEMERGENCE",8
same,"Plant response rating (0 to 100), Duck salad",[12]; Rate 16 g/ha,0
same,"Plant response rating (0 to 100), Duck salad",[12]; Rate 31 g/ha,0
same,Plant response rating Duck salad,[12]; 62 g/ha,30
same,Plant response rating Duck salad,[12]; 125 g/ha,50
same,"Plant response rating, Velvetleaf",[13]; 62 g/ha,100
same,"Plant response rating, Velvetleaf",[13]; 125 g/ha,100
same,"Plant response rating (0 to 100), Velvetleaf",[13]; Rate 16 g/ha,100
same,"Plant response rating (0 to 100), Velvetleaf",[13]; Rate 31 g/ha,100
same,"Plant response rating, Cheatgrass","[14]; POSTEMERGENCE, Rate 50 g/ha",5
same,"Plant response rating, Cheatgrass","[14]; POSTEMERGENCE, Rate 200 g/ha",7
same,"Plant response rating, Cheatgrass","[14]; PREEMERGENCE, Rate 50 g/ha",4
same,"Plant response rating, Cheatgrass","[14]; Rate 200 g/ha, PREEMERGENCE",6
same,"Plant response rating, Morningglory","[15]; POSTEMERGENCE, Rate 50 g/ha",8
same,"Plant response rating, Morningglory","[15]; PREEMERGENCE, Rate 50 g/ha",0
same,"Plant response rating, Morningglory","[15]; Rate 200 g/ha, POSTEMERGENCE",10
same,"Plant response rating, Morningglory","[15]; Rate 200 g/ha, PREEMERGENCE",2
same,"Plant response rating, Soybean",[16]; 62 g/ha,80
same,"Plant response rating, Soybean",[16]; 125 g/ha,100
same,"Plant response rating (0 to 100), Soybean",[16]; Rate 16 g/ha,50
same,"Plant response rating (0 to 100), Soybean",[16]; Rate 31 g/ha,50
same,"Plant response rating, Bedstraw","[17]; POSTEMERGENCE, Rate 50 g/ha",10
same,"Plant response rating, Bedstraw","[17]; POSTEMERGENCE, Rate 200 g/ha",10
same,"Plant response rating, Bedstraw","[17]; PREEMERGENCE, Rate 50 g/ha",10
same,"Plant response rating (0 to 100), Umbrella sedge",[18]; Rate 16 g/ha,0
same,"Plant response rating (0 to 100), Umbrella sedge",[18]; Rate 31 g/ha,20
same,Plant response rating Umbrella sedge,[18]; 62 g/ha,70
same,Plant response rating Umbrella sedge,[18]; 125 g/ha,80
